Laboratory results taken from patent publication US8410064B2, “Classical cannabinoid metabolites and methods of use thereof” (priority 2009, dated 2013).

Legend:
recombinant human UGT1A9 = target: T1, recombinant human UGT1A9 (Homo sapiens, UniProt O60656); experiment: Glucuronidation by recombinant UGT1A9 (activity screen and steady-state kinetics); conditions: UDP-GlcUA 4 mM
T1 sequence (O60656 26-530): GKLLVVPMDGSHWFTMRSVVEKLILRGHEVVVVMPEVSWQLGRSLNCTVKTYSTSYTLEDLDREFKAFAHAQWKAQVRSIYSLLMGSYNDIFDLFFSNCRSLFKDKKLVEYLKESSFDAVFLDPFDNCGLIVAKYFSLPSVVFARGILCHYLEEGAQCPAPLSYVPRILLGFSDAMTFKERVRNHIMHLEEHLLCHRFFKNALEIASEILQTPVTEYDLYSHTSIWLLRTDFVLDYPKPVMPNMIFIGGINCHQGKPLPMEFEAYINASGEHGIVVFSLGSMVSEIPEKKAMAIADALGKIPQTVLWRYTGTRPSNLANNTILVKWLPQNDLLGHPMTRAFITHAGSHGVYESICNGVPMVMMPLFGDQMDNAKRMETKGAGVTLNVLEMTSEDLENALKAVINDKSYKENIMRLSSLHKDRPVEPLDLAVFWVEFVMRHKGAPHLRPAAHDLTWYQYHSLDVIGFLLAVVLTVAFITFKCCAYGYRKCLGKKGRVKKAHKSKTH

[1] = target: T2, recombinant human UGT1A10 (Homo sapiens, UniProt Q9HAW8); experiment: Glucuronidation by recombinant UGT1A10 (activity screen and steady-state kinetics); conditions: for glucuronidation activity (initial screen): 750 μM substrate, 90 min
T2 sequence (Q9HAW8 26-530): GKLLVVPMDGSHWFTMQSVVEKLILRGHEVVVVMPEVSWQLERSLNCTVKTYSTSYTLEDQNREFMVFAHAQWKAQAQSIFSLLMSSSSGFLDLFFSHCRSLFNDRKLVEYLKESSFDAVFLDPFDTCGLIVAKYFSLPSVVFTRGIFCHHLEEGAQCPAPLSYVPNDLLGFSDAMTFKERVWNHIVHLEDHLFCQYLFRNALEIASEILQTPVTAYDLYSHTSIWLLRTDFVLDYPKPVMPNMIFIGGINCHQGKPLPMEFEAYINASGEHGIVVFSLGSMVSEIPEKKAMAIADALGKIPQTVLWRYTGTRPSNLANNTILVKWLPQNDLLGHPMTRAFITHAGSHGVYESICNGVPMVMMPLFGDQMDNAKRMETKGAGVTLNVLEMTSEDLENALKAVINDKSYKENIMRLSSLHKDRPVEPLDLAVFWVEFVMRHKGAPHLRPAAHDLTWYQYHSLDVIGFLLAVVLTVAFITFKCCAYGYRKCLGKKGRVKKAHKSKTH

human liver microsomes = experiment: Glucuronidation by human liver microsomes (activity screen); conditions: human liver microsomes (HLM); 750 μM substrate, UDP-GlcUA 4 mM, 90 min
recombinant human UGT1A1 = target: T3, recombinant human UGT1A1 (Homo sapiens, UniProt P22309); experiment: Glucuronidation by recombinant UGT1A1 (activity screen and steady-state kinetics); conditions: UDP-GlcUA 4 mM
T3 sequence (P22309 26-533): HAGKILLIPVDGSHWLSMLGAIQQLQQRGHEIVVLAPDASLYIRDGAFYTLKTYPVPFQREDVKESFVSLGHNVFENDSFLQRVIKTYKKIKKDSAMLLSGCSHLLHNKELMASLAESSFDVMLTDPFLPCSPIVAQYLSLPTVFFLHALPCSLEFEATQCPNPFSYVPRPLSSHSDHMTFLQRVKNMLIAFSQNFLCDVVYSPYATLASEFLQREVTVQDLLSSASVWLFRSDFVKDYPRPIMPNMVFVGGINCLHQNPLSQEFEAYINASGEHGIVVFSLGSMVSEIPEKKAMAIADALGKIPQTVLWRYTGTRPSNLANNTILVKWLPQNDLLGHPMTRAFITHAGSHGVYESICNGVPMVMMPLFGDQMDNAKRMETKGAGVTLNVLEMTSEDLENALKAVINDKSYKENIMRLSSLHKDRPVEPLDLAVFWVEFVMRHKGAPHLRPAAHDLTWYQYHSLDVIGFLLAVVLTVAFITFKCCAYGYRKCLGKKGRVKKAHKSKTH

recombinant human UGT1A3 = target: T4, recombinant human UGT1A3 (Homo sapiens, UniProt P35503); experiment: Glucuronidation by recombinant UGT1A3 (activity screen and steady-state kinetics); conditions: UDP-GlcUA 4 mM
T4 sequence (P35503 29-534): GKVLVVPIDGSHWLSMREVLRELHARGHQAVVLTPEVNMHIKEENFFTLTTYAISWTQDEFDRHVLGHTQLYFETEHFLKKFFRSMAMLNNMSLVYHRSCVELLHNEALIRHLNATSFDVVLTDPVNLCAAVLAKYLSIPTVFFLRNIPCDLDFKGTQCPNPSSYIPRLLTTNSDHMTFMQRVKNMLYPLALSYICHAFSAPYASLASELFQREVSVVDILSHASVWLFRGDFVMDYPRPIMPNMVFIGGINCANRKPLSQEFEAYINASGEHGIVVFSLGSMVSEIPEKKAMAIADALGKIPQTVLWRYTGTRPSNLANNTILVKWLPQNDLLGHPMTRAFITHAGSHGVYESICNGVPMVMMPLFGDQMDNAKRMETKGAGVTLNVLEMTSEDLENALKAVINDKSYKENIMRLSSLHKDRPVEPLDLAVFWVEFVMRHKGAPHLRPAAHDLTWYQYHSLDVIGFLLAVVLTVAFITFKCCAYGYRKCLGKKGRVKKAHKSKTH

[2] = substrate: CCCCCc1cc(O)c2c(c1)OC(C)(C)c1ccc(C)cc1-2; experiment: cells, lysate or membranes named; conditions: UDP-GlcUA 4 mM, 37° C., 30 min, TLC, pH 7.4
[3] = 5 μg membrane protein, 37° C., 30 min, TLC
[4] = 5 μg membrane protein, 37° C., 30 min, TLC, normalized
[5] = other: UGT1A9, 5 μg membrane protein
[6] = other: UGT1A10, 5 μg membrane protein
[7] = other: UGT1A7, 5 μg membrane protein
[8] = other: UGT1A8, 5 μg membrane protein

(±)-11-hydroxy-Δ^9-THC [11-OH-THC] was tested, and the Km (recombinant human UGT1A9; [3]) was 73 ± 1.9 µM, the Vmax (recombinant human UGT1A9; [4]) was 0.14 ± 0.01 nmol/mg protein/min and the “glucuronidation activity (initial screen)” value (“glucuronidation activity” below) (recombinant human UGT1A9; 750 μM substrate, 90 min) was “specifically glucuronidated”. The Km ([1]; 5 μg membrane protein, UDP-GlcUA 4 mM, 37° C., 30 min, TLC) was 72 ± 19 µM, the Vmax ([1]; 5 μg membrane protein, UDP-GlcUA 4 mM, 37° C., 30 min, TLC, normalized) was 0.33 ± 0.03 nmol/mg protein/min and the “glucuronidation activity” value ([1]; UDP-GlcUA 4 mM) was “specifically glucuronidated”.

`CCCCCc1cc(O)c2c(c1)OC(C)(C)c1ccc(C)cc1-2` [CBN, cannabinol] was tested, and the “glucuronidation activity” value ([1]; UDP-GlcUA 4 mM) was “glucuronidated at high levels” and the “effectiveness of conjugation relative to 11-OH-THC” value ([1]; CBN versus 11-OH-THC) was 3 fold.

`CCCCCc1cc(O)c2c(c1)OC(C)(C)[C@@H]1CCC(C(=O)O)=C[C@@H]21` [COOH-THC, (−)-11-nor-9-carboxy-Δ^9-THC] was tested, and the “glucuronidation activity” value (human liver microsomes) was “significant amount of activity”, the Km (recombinant human UGT1A1; [3]) was 170 ± 37 µM and the Vmax (recombinant human UGT1A1; [4]) was 0.22 ± 0.02 nmol/mg protein/min. For the same molecule, the “glucuronidation activity” value (recombinant human UGT1A1; 750 μM substrate, 90 min) was “significant amount of activity”, the Km (recombinant human UGT1A3; [3]) was 68 ± 17 µM and the Vmax (recombinant human UGT1A3; [4]) was 0.68 ± 0.06 nmol/mg protein/min. The “glucuronidation activity” value (recombinant human UGT1A3; 750 μM substrate, 90 min) was “highest activity”.

B1: recombinant human UGT1A9 (Homo sapiens) (protein)
chain: GKLLVVPMDGSHWFTMRSVVEKLILRGHEVVVVMPEVSWQLGRSLNCTVKTYSTSYTLEDLDREFKAFAHAQWKAQVRSIYSLLMGSYNDIFDLFFSNCRSLFKDKKLVEYLKESSFDAVFLDPFDNCGLIVAKYFSLPSVVFARGILCHYLEEGAQCPAPLSYVPRILLGFSDAMTFKERVRNHIMHLEEHLLCHRFFKNALEIASEILQTPVTEYDLYSHTSIWLLRTDFVLDYPKPVMPNMIFIGGINCHQGKPLPMEFEAYINASGEHGIVVFSLGSMVSEIPEKKAMAIADALGKIPQTVLWRYTGTRPSNLANNTILVKWLPQNDLLGHPMTRAFITHAGSHGVYESICNGVPMVMMPLFGDQMDNAKRMETKGAGVTLNVLEMTSEDLENALKAVINDKSYKENIMRLSSLHKDRPVEPLDLAVFWVEFVMRHKGAPHLRPAAHDLTWYQYHSLDVIGFLLAVVLTVAFITFKCCAYGYRKCLGKKGRVKKAHKSKTH
For B1, the Km [2, 5] was 3.4 ± 1.3 µM and the Vmax [2, 5] was 0.0001 µmol/min/mg.

B2: recombinant human UGT1A10 (Homo sapiens) (protein)
chain: GKLLVVPMDGSHWFTMQSVVEKLILRGHEVVVVMPEVSWQLERSLNCTVKTYSTSYTLEDQNREFMVFAHAQWKAQAQSIFSLLMSSSSGFLDLFFSHCRSLFNDRKLVEYLKESSFDAVFLDPFDTCGLIVAKYFSLPSVVFTRGIFCHHLEEGAQCPAPLSYVPNDLLGFSDAMTFKERVWNHIVHLEDHLFCQYLFRNALEIASEILQTPVTAYDLYSHTSIWLLRTDFVLDYPKPVMPNMIFIGGINCHQGKPLPMEFEAYINASGEHGIVVFSLGSMVSEIPEKKAMAIADALGKIPQTVLWRYTGTRPSNLANNTILVKWLPQNDLLGHPMTRAFITHAGSHGVYESICNGVPMVMMPLFGDQMDNAKRMETKGAGVTLNVLEMTSEDLENALKAVINDKSYKENIMRLSSLHKDRPVEPLDLAVFWVEFVMRHKGAPHLRPAAHDLTWYQYHSLDVIGFLLAVVLTVAFITFKCCAYGYRKCLGKKGRVKKAHKSKTH
B2 showed a Km [2, 6] of 59 ± 10 µM and a Vmax [2, 6] of 0.00091 µmol/min/mg.

B3: recombinant human UGT1A7 (Homo sapiens) (protein)
chain: GKLLVVPMDGSHWFTMQSVVEKLILRGHEVVVVMPEVSWQLGRSLNCTVKTYSTSYTLEDQDREFMVFADARWTAPLRSAFSLLTSSSNGIFDLFFSNCRSLFNDRKLVEYLKESCFDAVFLDPFDACGLIVAKYFSLPSVVFARGIFCHYLEEGAQCPAPLSYVPRLLLGFSDAMTFKERVWNHIMHLEEHLFCPYFFKNVLEIASEILQTPVTAYDLYSHTSIWLLRTDFVLEYPKPVMPNMIFIGGINCHQGKPVPMEFEAYINASGEHGIVVFSLGSMVSEIPEKKAMAIADALGKIPQTVLWRYTGTRPSNLANNTILVKWLPQNDLLGHPMTRAFITHAGSHGVYESICNGVPMVMMPLFGDQMDNAKRMETKGAGVTLNVLEMTSEDLENALKAVINDKSYKENIMRLSSLHKDRPVEPLDLAVFWVEFVMRHKGAPHLRPAAHDLTWYQYHSLDVIGFLLAVVLTVAFITFKCCAYGYRKCLGKKGRVKKAHKSKTH
In the case of B3, the Km [2, 7] is reported as 19 ± 3.9 µM and the Vmax [2, 7] is reported as 0.00024 µmol/min/mg.

B4: recombinant human UGT1A8 (Homo sapiens) (protein)
chain: GKLLVVPMDGSHWFTMQSVVEKLILRGHEVVVVMPEVSWQLGKSLNCTVKTYSTSYTLEDLDREFMDFADAQWKAQVRSLFSLFLSSSNGFFNLFFSHCRSLFNDRKLVEYLKESSFDAVFLDPFDACGLIVAKYFSLPSVVFARGIACHYLEEGAQCPAPLSYVPRILLGFSDAMTFKERVRNHIMHLEEHLFCQYFSKNALEIASEILQTPVTAYDLYSHTSIWLLRTDFVLDYPKPVMPNMIFIGGINCHQGKPLPMEFEAYINASGEHGIVVFSLGSMVSEIPEKKAMAIADALGKIPQTVLWRYTGTRPSNLANNTILVKWLPQNDLLGHPMTRAFITHAGSHGVYESICNGVPMVMMPLFGDQMDNAKRMETKGAGVTLNVLEMTSEDLENALKAVINDKSYKENIMRLSSLHKDRPVEPLDLAVFWVEFVMRHKGAPHLRPAAHDLTWYQYHSLDVIGFLLAVVLTVAFITFKCCAYGYRKCLGKKGRVKKAHKSKTH
B4 showed a Km [2, 8] of 44 ± 8.1 µM and a Vmax [2, 8] of 0.00049 µmol/min/mg.
